Laboratory results reported in PubChem BioAssay (NCI).
Where “and” joins values, the source holds several entries; their conditions need not be identical. Equal entries are not always repeated.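 Briefly, cells in 96-well plates were exposed to five compound concentrations for 48 h, and endpoints were estimated by linear interpolation. GI50 marks 50% less growth. At the TGI there is no net growth.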

Legend:
Experiment in all cases: NCI-60 cell line screen, 48 h
786-0 renal = tested on: 786-0 renal
A498 renal = tested on: A498 renal
HCT-116 colon = tested on: HCT-116 colon
IGROV1 ovarian = tested on: IGROV1 ovarian
MCF7 breast = tested on: MCF7 breast
NCI-H522 lung = tested on: NCI-H522 lung
OVCAR-8 ovarian = tested on: OVCAR-8 ovarian
RXF 393 renal = tested on: RXF 393 renal
SK-MEL-28 melanoma = tested on: SK-MEL-28 melanoma
SNB-19 CNS = tested on: SNB-19 CNS

SMILES | TGI (786-0 renal) | TGI (A498 renal) | TGI (HCT-116 colon) | TGI (IGROV1 ovarian) | TGI (MCF7 breast) | TGI (NCI-H522 lung) | TGI (OVCAR-8 ovarian) | TGI (RXF 393 renal) | TGI (SK-MEL-28 melanoma) | TGI (SNB-19 CNS) | GI50 (A498 renal) | GI50 (IGROV1 ovarian) | GI50 (OVCAR-8 ovarian) | GI50 (SK-MEL-28 melanoma) | GI50 (SNB-19 CNS)
N#Cc1c(-c2ccc([N+](=O)[O-])cc2)cc(-c2ccc(Nc3ccnc4cc(Cl)ccc34)cc2)[nH]c1=O | > 100 µM | > 100 µM | > 100 µM | > 100 µM | > 100 µM | > 100 µM | > 100 µM | > 100 µM | > 100 µM | > 100 µM |  |  |  |  | 
CCOC(=O)CSc1nc(N)c2c(-c3ccccc3)c3c(nc2n1)CCCC3 | > 100 µM | > 100 µM | > 100 µM | > 100 µM | > 100 µM | > 100 µM | > 100 µM | > 100 µM | > 100 µM | > 100 µM |  |  |  |  | 
C[C@@H]1CC[C@@]2(C)C(C(=O)O)=CCCC2[C@@]1(C)CC(=O)c1ccoc1 (stereo not given in full) | > 25 µM | > 25 µM | > 25 µM | > 25 µM | > 25 µM | > 25 µM | > 25 µM | > 25 µM | > 25 µM | > 25 µM |  |  |  |  | 
Cc1nc2ccc(Cl)cc2c(-n2ccnc2)c1CCn1ccnc1 | 3.2 µM | 76.2 µM | > 100 µM | > 100 µM | > 100 µM | 70.9 µM | 3.37 µM | 53.1 µM | 92.8 µM | > 100 µM |  |  |  |  | 
c1c[nH]c(-c2cccc3nsnc23)c1 | > 100 µM | > 100 µM | > 100 µM | > 100 µM | > 100 µM | > 100 µM | > 100 µM | > 100 µM | > 100 µM | > 100 µM |  |  |  |  | 
C[n+]1cc2cc(O)c(O)cc2c2ccc3cc(O)c(O)cc3c21 | 9.21 µM | 11.8 µM | 4.21 µM | 4.75 µM | 9.09 µM | 3.43 µM | 11.4 µM | 9.34 µM | > 100 µM | 16.5 µM |  |  |  |  | 
Cn1c2ccccc2c2ccc3c(c21)C(=O)c1ccc2c4ccccc4n(C)c2c1C3=O | > 100 µM | > 100 µM | > 100 µM | > 100 µM | > 100 µM | > 100 µM | > 100 µM | > 100 µM | > 100 µM | > 100 µM |  |  |  |  | 
CC(C)NC(=O)OCc1c(COC(=O)NC(C)C)n(C)c2c1ccc1sccc12 | 36.8 µM | 52.3 µM | 39 µM | 26.1 µM | > 55.5 µM | 15.5 µM | > 100 µM | 39.9 µM | 57.3 µM | > 100 µM |  |  |  |  | 
COc1ccc2nc(NC(=O)/C(C#N)=C/c3ccccc3)sc2c1 | > 100 µM | > 100 µM | > 100 µM | > 86.3 µM | > 100 µM | 65.4 µM | > 100 µM | > 100 µM | > 100 µM | > 100 µM |  |  |  |  | 
O=C(CC(NC(=O)C(F)(F)F)C(=O)O)OCc1ccccc1 (stereo not given) | > 100 µM | > 100 µM | > 100 µM | > 100 µM | > 100 µM | > 100 µM | > 100 µM | > 100 µM | > 100 µM | > 100 µM |  |  |  |  | 
O=c1c(F)cn2c(=O)n1CCCCCCCn1c(=O)c(F)cn(c1=O)CCCCCCC2 | > 100 µM | > 100 µM | > 100 µM | > 100 µM | > 100 µM | > 100 µM | > 100 µM | > 100 µM | 22.2 µM | > 100 µM |  |  |  |  | 
NCCN1CCCCCc2ccccc21 | > 10 µM | > 10 µM | > 10 µM | > 10 µM | > 10 µM | > 10 µM | > 10 µM | > 10 µM | > 10 µM | > 10 µM |  |  |  |  | 
CC(=O)c1ccc(Oc2c3ccccc3nc3ccccc23)cc1 | 9.61 µM | 31.8 µM | 8.81 µM | 17.4 µM | 12.1 µM | 25.4 µM | 22.2 µM | 21.3 µM | 28.5 µM | 37.8 µM |  |  |  |  | 
O=C(/C=C/c1ccc(Cl)cc1)Oc1ccc(C=C2CCC/C(=C\c3ccc(OC(=O)/C=C/c4ccc(Cl)cc4)cc3)C2=O)cc1 | > 100 µM | > 100 µM | > 100 µM | > 100 µM | > 100 µM | > 100 µM | > 100 µM | > 100 µM | > 100 µM | > 100 µM |  |  |  |  | 
CN(C)CCn1c(=O)c2ccc(NCCCN(C)CCCNc3ccc4c(=O)n(CCN(C)C)c(=O)n5c6ccc(O)cc6c(=O)c3c45)c3c(=O)c4cc(O)ccc4n(c1=O)c23 | 1.05 µM | 0.367 µM | 0.49 µM | 0.392 µM | 0.71 µM | 0.0802 µM | 0.347 µM | 0.215 µM | 1.19 µM | 1.54 µM |  |  |  |  | 
NC1=CC(=O)c2c(O)ccc(O)c2C1=O | 21.8 µM | 47.5 µM | 22.3 µM | 29.5 µM | 18.6 µM | 18 µM | 33 µM | 22.1 µM | 38 µM | > 65.9 µM |  |  |  |  | 
COC(=O)/C=C(/C=C1/C(C#N)=C(N)N(c2ccc(Cl)cc2)C1(C)/C(=C\C(=O)OC)C(=O)OC)C(=O)OC (stereo not given) | 32.7 µM | > 100 µM | 31.2 µM | 60.2 µM | 46.2 µM | 16.4 µM | 33.7 µM | 35.4 µM | 36.2 µM | > 100 µM |  |  |  |  | 

SMILES | TGI (786-0 renal) | TGI (A498 renal) | TGI (HCT-116 colon) | TGI (IGROV1 ovarian) | TGI (MCF7 breast) | TGI (NCI-H522 lung) | TGI (OVCAR-8 ovarian) | TGI (RXF 393 renal) | TGI (SK-MEL-28 melanoma) | TGI (SNB-19 CNS) | GI50 (A498 renal) | GI50 (IGROV1 ovarian) | GI50 (OVCAR-8 ovarian) | GI50 (SK-MEL-28 melanoma) | GI50 (SNB-19 CNS)
Cc1c2ccnc(C(N)=O)c2c(C)c2c1[nH]c1ccccc12 | 23.3 µM | 26.7 µM and 12.4 µM | 17.4 µM | 50 µM and 27.4 µM | 32 µM | 31.6 µM | 19.1 µM and > 100 µM | 16.6 µM | 19.4 µM and 20.1 µM | 46.9 µM and 19.9 µM | 3.09 µM | 7.49 µM | 4.87 µM | 5.31 µM | 4.45 µM
CCOC1C=CC(=O)C(CO)O1 (stereo not given) | 14.2 µM | 49.4 µM | 17.4 µM | 27.6 µM | 17.7 µM | 3.52 µM | 26 µM | 24.2 µM | 33.3 µM | 42.9 µM |  |  |  |  | 
CC(=O)Nc1nc(Cl)cc(NCC2(CO)CCC2)n1 | > 100 µM | > 100 µM | > 100 µM | > 100 µM | > 100 µM | > 100 µM | > 100 µM | > 100 µM | > 100 µM | > 100 µM |  |  |  |  | 
OCc1ccc2c(c1)CC1(C2)Cc2cc3c(cc2C1O)CCC3 (stereo not given) | 45.6 µM | 27.7 µM | 15.4 µM | 26.8 µM | 17.6 µM | 10 µM | 30.9 µM | 18.4 µM | 21.3 µM | > 100 µM |  |  |  |  | 
COC(=O)c1ccccc1C1CN=NC12Cc1c(ccc(C)c1C)C2=O (stereo not given) | > 100 µM | > 100 µM | > 100 µM | > 100 µM | > 100 µM | > 100 µM | > 100 µM | > 100 µM | > 100 µM | > 100 µM |  |  |  |  | 
O=C(NCc1ccccc1)c1cc2ccccc2oc1=Nc1cccc(C(F)(F)F)c1 | > 100 µM | > 100 µM | > 100 µM | > 100 µM | > 100 µM | > 100 µM | > 100 µM | > 100 µM | > 100 µM | > 100 µM |  |  |  |  | 
Cc1ccc2c(c1C)C(=O)C1(Cc3cc4c(cc3C1=O)CCC4)C2 (stereo not given) | > 100 µM | > 100 µM | > 100 µM | > 100 µM | > 100 µM | > 100 µM | > 100 µM | > 100 µM | > 100 µM | > 100 µM |  |  |  |  | 
CN(C)CCN(c1ccccn1)c1ccccn1 | > 100 µM | > 100 µM | > 100 µM | > 100 µM | > 100 µM | > 100 µM | > 100 µM | > 100 µM | > 100 µM | > 100 µM |  |  |  |  | 
CC(C)Oc1cccc(N2C(n3ccnc3)=Nc3ccncc3S2(=O)=O)c1 | 22.1 µM | 31.8 µM | 26.8 µM | 29.1 µM | 24.1 µM | 22 µM | 40.7 µM | 28.9 µM | 33 µM | 36 µM |  |  |  |  | 
COc1ccc2ccc3oc(=O)c(C)cc3c2c1 | > 100 µM | > 100 µM | > 100 µM | > 100 µM | > 100 µM | > 100 µM | > 100 µM | > 100 µM | > 100 µM | > 100 µM |  |  |  |  | 
Cc1ccc(-c2cc(-c3ccco3)c(C#N)c(=S)[nH]2)cc1 | > 100 µM | > 100 µM | > 100 µM | > 100 µM | > 100 µM | > 100 µM | > 100 µM | > 100 µM | > 100 µM | > 100 µM |  |  |  |  | 
CC1=CC2C3(C)C(C)(C(C)=CP3(=O)c3c(C(C)C)cc(C(C)C)cc3C(C)C)C1P2(=O)c1c(C(C)C)cc(C(C)C)cc1C(C)C (stereo not given) | 5.47 µM | 6.26 µM | 4.02 µM | 6.1 µM | 6.38 µM | 8.64 µM | 16.6 µM | 15.8 µM | 8.23 µM | 15.8 µM |  |  |  |  | 
O=CC(I)=C(c1ccccc1)c1ccccc1 | 28.9 µM | 41.8 µM | 27.2 µM | 37.5 µM | 31.9 µM | 32.3 µM | 53.8 µM | 41.4 µM | 31.8 µM | 30.1 µM |  |  |  |  | 
CN(O)C(=O)/C=C/c1ccc(OCc2cccc(Cl)c2)cc1 | 47.2 µM | 66 µM | 32.9 µM | 60.8 µM | > 100 µM | > 100 µM | 32.8 µM | > 100 µM | > 100 µM | > 100 µM |  |  |  |  | 
CC1(C)CC(=O)C2=C(C1)C(c1ccccc1Cl)C1C(=O)CC(C)(C)CC1(O)O2 (stereo not given) | > 100 µM | > 100 µM | > 100 µM | > 100 µM | > 100 µM | > 100 µM | > 100 µM | > 100 µM | > 100 µM | > 100 µM |  |  |  |  | 
O=C(COc1ccc(OCC(=O)N/N=C/c2ccc(-c3ccc(Cl)cc3Cl)o2)c(Cl)c1)N/N=C/c1ccc(-c2ccc(Cl)cc2Cl)o1 | > 100 µM | > 100 µM | > 100 µM | > 100 µM | > 100 µM | > 100 µM | > 100 µM | 81.2 µM | > 100 µM | > 100 µM |  |  |  |  | 
COC(=O)[C@]1(C)CCC[C@@]2(C)C1CC[C@]13C=C(C(C)C)[C@H](CC21)CC3(Cl)C#N (stereo not given in full) | > 100 µM | > 100 µM | > 100 µM | > 100 µM | > 100 µM | > 100 µM | > 100 µM | 97.5 µM | > 100 µM | > 100 µM |  |  |  |  | 
